What was measured:
[1] = biological target: T1, phosphoglycerate dehydrogenase (PHGDH) (Homo sapiens, UniProt O43175)
T1 sequence (O43175 2-533): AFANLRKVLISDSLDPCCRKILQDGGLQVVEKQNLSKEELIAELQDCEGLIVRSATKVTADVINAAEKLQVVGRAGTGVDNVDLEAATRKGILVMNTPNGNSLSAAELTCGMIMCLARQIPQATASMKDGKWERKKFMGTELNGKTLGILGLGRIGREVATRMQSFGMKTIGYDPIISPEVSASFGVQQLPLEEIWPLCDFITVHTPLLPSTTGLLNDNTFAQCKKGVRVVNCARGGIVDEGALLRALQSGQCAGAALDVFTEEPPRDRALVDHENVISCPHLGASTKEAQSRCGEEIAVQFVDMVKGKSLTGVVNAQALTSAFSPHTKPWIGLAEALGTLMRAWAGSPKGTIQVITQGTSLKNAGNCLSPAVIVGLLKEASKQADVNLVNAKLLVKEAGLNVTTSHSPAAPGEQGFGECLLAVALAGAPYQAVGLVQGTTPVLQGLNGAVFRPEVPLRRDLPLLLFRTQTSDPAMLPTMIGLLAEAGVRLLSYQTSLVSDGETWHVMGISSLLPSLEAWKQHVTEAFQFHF

[2] = biological target: T2, serine hydroxymethyltransferase 2 (SHMT2) (Homo sapiens, UniProt P34897); assay: microscale thermophoresis with labeled recombinant human SHMT2; format: binding
T2 sequence (P34897 30-504): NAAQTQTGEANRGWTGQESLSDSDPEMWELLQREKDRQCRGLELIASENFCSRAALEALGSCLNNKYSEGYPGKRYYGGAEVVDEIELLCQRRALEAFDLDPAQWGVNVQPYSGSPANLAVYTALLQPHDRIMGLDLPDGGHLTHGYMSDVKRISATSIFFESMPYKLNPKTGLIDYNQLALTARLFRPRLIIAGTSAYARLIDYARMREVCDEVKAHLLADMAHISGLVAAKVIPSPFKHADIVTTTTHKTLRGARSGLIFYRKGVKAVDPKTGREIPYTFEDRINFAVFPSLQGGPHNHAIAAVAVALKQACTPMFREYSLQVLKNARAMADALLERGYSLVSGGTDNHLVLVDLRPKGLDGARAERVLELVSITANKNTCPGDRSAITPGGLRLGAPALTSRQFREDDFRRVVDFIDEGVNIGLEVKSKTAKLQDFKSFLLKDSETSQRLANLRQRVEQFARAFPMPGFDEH

Row | SMILES | IC50 [1] [µM] | Kd [2] [µM]
1 | C[CH2][Hg][S]c1ccccc1C(=O)O [thimerosal] | 0.152 | 
2 | CN[C@H]1CC[C@@H](c2ccc(Cl)c(Cl)c2)c2ccccc21 [sertraline] |  | 13.1

Reference: article PMC7611204 (Molecular cancer therapeutics, 2020)
